# According to a melting point compilation (Tetko et al.; mined from patent text by program, amines drawn as free bases though some values may be those of a salt):
row,melting point [°C],Compound
1,163 to 174,COc1cc2c(cc1Nc1ncc(Cl)c(Nc3cc(C(N)=O)ccc3OC)n1)CCN(CC(=O)N(C)C)CC2
2,57 to 58,CCCCCCCCCCC1CCCC1C(=O)Nc1c(OC)ccc2ncccc12 (stereo not drawn)
3,73 to 75,CC1=CC(=O)C(C)S(=O)(=O)N1C (stereo not drawn)
4,170,COCC(=O)OC[C@@H]1CC(c2ccc(-c3ccc(N4C[C@H](Cn5ccnn5)OC4=O)cc3F)cn2)=NO1
5,188,Nc1ccccc1Oc1cc(-c2ccc(C(F)(F)F)cc2)ncn1
6,82 to 83,CC(C)C1C(=O)N(CSc2ccccc2)S(=O)(=O)N1C (stereo not drawn)
7,115 to 116,CCSc1cn(C)cc(-c2ccc(Cl)c(C(F)(F)F)c2)c1=O
8,124 to 126,COC(=O)c1cc(F)c([N+](=O)[O-])cc1NC(C)=O
9,83 to 85,CN(C)CCOc1ccc(C2(c3ccccc3)OCCC2c2ccccc2)cc1 (stereo not drawn)
10,158 to 161,COc1cc2ncnc(N3CCC(CN4CCCN(C(C)C)S4(=O)=O)CC3)c2cc1OC
11,134 to 141,COC(=O)c1cc(C(=O)CNC(C)(C)Cc2ccc3c(c2)OCO3)ccc1OCc1ccccc1
12,164 to 167,COc1ccc(C(=O)Nc2ccc(F)cc2)cc1N
13,230 to 232,CS(=O)(=O)Nc1ccc(N2CCN(c3ccncc3)CC2)cc1
14,102 to 104,COc1ccc(-c2nc(SC)sc2-c2ccc(OC)cc2)cc1
15,78 to 80,CC(=O)Oc1ccc(Cn2ccnc2SC(C)=O)cc1F
16,85 to 88,CCCCC(CC)COc1cc2c3c(cccc3c1Br)C(=O)c1ccccc1-2 (stereo not drawn)
17,85 to 88,Cc1ccc(N2CCN(C(=O)NCCN(C)C)CC2)cc1
18,203 to 205,O=C1c2cc3nnn(Cc4cccnc4)c(=O)c3cc2OC2CCCN12 (stereo not drawn)
19,136 to 138,CCCCCCCCCCCCCCOc1ccccc1NC(=O)c1cc(Sc2nnnn2-c2cccc(C(=O)O)c2)c2ccccc2c1O
20,177 to 179,CN1CCN(c2ccccc2C=C2CCN(c3ccc(Cl)c(Cl)c3)C2=O)CC1
21,128 to 130,COc1ccc(N2CC(CCN3CCC(O)(c4ccc5c(c4)OCO5)CC3)OC2=O)cc1 (stereo not drawn)
22,136 to 140,CCCCCC=C1SC(=S)N(CC(=O)O)C1=O
23,57 to 59,CCCc1c(OCCCCCCC(=O)NCCCCc2cccnc2)ccc(C(C)=O)c1O
24,63 to 67,CCOC(=O)Cn1nnnc1C(=O)c1ccccc1

row,melting point [°C],Compound
1,27.3,C=CCOc1ccc(OC[C@H]2CC[C@H](C=C)CC2)c(F)c1F
2,63 to 64,COc1cccc(CO)c1C
3,66 to 70,Cn1ccc2c(N3CCN(CC4CCc5ccccc5N4C(=O)C4CCCCC4)CC3)cccc21 (stereo not drawn)
4,185,Nc1c(C(=O)Nc2nnn[nH]2)oc2ccccc12
5,181 to 182,Nc1cccc(Sc2ccc3c(c2)OCC(=O)N3)c1
6,201 to 203,COC(=O)c1nn(C2CCCCO2)cc1NC(=O)c1cc(Cl)ccn1 (stereo not drawn)
7,158,CCOc1cc(-c2c(C(=O)OC)c(C(=O)OC)c(O)c3cc(OC)c(OC)c(OC)c23)ccc1OC
8,131 to 139,CC(=O)Nc1cccc(Nc2ncc3ccc(-c4cccn4CCC#N)n3n2)c1
9,263 to 264,CC(C)(C)OC(=O)N1CCC(NC(=O)c2ccc(-n3cccn3)cc2)C1 (stereo not drawn)
10,166 to 168,N#CCS(=O)(=O)c1ccc([N+](=O)[O-])cc1
11,172 to 173,O=C1C=CC(=O)c2nccnc21
12,168 to 170,Nc1ccccc1NC(=O)c1ccc(CCC(=O)NCc2cccnc2)cc1
13,103 to 105,CCCCc1cnc(C(N)=O)cc1N
14,221 to 222,COc1ccnc(CCc2nc3cc(-c4ccc(S(=O)(=O)Nc5ccc(N(C)C)cc5)cc4)cnc3[nH]2)c1
15,335,O=c1[nH]c2ccc(Cl)cc2c(=O)n1N1CCOCC1
16,153 to 154,CON(Cc1ccccc1C)C(=O)C1=C(O)C(=O)N(C)C1
17,177 to 178,O=c1ccn(CCO)c(C(O)c2ccccc2F)c1O (stereo not drawn)
18,178 to 180,C[C@]1(N2Cc3c(OCc4ccc(CN5CCOCC5)cc4)cccc3C2=O)CCC(=O)NC1=O
19,186 to 188,COc1cc(OC)cc(N2CCN(C(=O)[C@](C)(C#N)[C@H](c3ccccc3OC)c3cccc4ccccc34)CC2)c1
20,> 260,CCCCC1=C(C(=O)O)Nc2ccc(C(=O)O)cc2C1O (stereo not drawn)
21,47 to 52,CC1CCCN(c2cc3nc(C(C)(C)C)sc3cc2N=C=S)C1 (stereo not drawn)
22,104,CCCCn1c(-c2ccc(Cl)c(S(=O)(=O)N(C)C)c2)csc1=Nc1ccccc1C
23,238 to 240,Nc1ccc(C2=NNC(=O)Cc3cc4c(cc32)OCO4)c(Cl)c1
24,353 to 356,O=c1[nH]c2ncc(-c3ccc(-c4nc[nH]n4)nc3)nc2n1CC1CCOCC1

row,melting point [°C],Compound
1,161 to 163,COC(=O)c1nc(-c2cc([N+](=O)[O-])c(Cl)cc2F)cc(N)c1Cl
2,208 to 210,O=[N+]([O-])c1ccc2nc(-c3cccs3)oc2c1
3,242 to 244,O=C1c2ccccc2C(=O)N1CCC(=O)N1c2ccccc2N(Cc2ccccc2)C(=O)[C@H]2CCC[C@H]21 (relative stereo)
4,99.5 to 100,CC(C)CCCC(C)C1CCC2C3CC=C4CC(Br)CCC4(C)C3CCC12C (stereo not drawn)
5,167 to 168,O=[N+]([O-])c1ccc(SCCc2c[nH]cn2)cc1
6,143,CCC1Nc2c(cc(C)nc2C)N1c1ccc(CCNC(=O)NS(=O)(=O)c2ccc(C)cc2)cc1 (stereo not drawn)
7,127 to 128,CCOP(=O)(/C=C/c1cn(-c2ccccc2)nc1OCc1ccc(OCc2nc(-c3cccc(O)c3)oc2C)c(OC)c1)OCC
8,163 to 165,COc1cc(/C=C/C(=O)Nc2ccc(Br)cc2)ccc1F
9,164 to 168,NC(CCOc1ccc(C(=NO)C(=O)NC2CN(C(C(=O)O)c3ccc(OCc4ccccc4)cc3)C2=O)cc1)C(=O)O (stereo not drawn)
10,159 to 161,O=[N+]([O-])c1cccc(-n2cnc3c([N+](=O)[O-])cccc32)c1
11,112 to 113,Cc1nc2sccn2c(=O)c1C
12,167 to 180,COc1cc(C2Oc3cc(C4Oc5cc(O)cc(O)c5C(=O)C4O)ccc3OC2CO)ccc1O (stereo not drawn)
13,274 to 277,O=c1nc(-c2ccccc2F)c2c3c(sc2[nH]1)CCCC3
14,78 to 82,Cc1noc(NS(=O)(=O)c2cccc(-c3ccccc3)c2)c1Br
15,170 to 171,COc1ccc(C(=O)O)c2cc(C3CCCC3)oc12
16,194 to 195,CC(=O)Oc1ccc2c(c1)COc1cc3cc(OC(C)=O)ccc3cc1-2
17,76 to 77,CC(=O)C1(COC(=O)Oc2ccccc2)CC2C=CC1C2 (stereo not drawn)
18,206,N=C(NO)c1ccc2c(c1)COC(N[C@@H]1CCc3ccccc31)=N2
19,> 230,O=[N+]([O-])c1c(O)ccnc1O
20,127 to 128,CN(C)C(=S)SC(C[N+](=O)[O-])c1ccc(Cl)cc1Cl (stereo not drawn)
21,168 to 170,CCOC(=O)c1cn(C[C@@H]2CN(c3ccc(N4CCC5(CC4)OCCO5)c(F)c3)C(=O)O2)nn1
22,135 to 136,Cc1nn(-c2cc(Oc3ccc([N+](=O)[O-])cc3Cl)c(Cl)cc2Cl)c(=O)n1C(F)F
23,182 to 185,Cn1cc(-c2cc3cccnc3[nH]2)c2cc(OCC(O)CO)ccc21 (stereo not drawn)
24,176,C#Cc1c(C#N)nn(-c2c(Cl)cc(OC(F)(F)F)cc2Cl)c1N

row,melting point [°C],Compound
1,148 to 149,CCC(C)(Oc1ccc(F)cc1F)C(=O)Nc1nc(CC(=O)O)cs1 (stereo not drawn)
2,118,COc1ccc(S(=O)(=O)n2c(Cl)nc3c2c(=O)n(CC2CC2)c(=O)n3CC2CC2)cc1
3,180 to 183,CCCn1cc(-c2nc(C#N)c(N)nc2-c2ccccc2)ccc1=O
4,124 to 125,Cc1cc(C)cc(Sc2cccc(N)c2C#N)c1
5,137 to 139,C#CCN(Cc1ccc2nc[nH]c(=O)c2c1)c1ccc(C(=O)NCc2cccnc2)cc1
6,195 to 198,COC(=O)c1ccc(Cn2ncc3ccc(NC(=O)CC4CCCC4)cc32)c(OC)c1
7,177 to 179,CC(C(=O)O)c1cccc(C(=O)c2ccccc2)c1[N+](=O)[O-] (stereo not drawn)
8,96,Cc1ccc(S(=O)(=O)N2[C@H](CCCO)CC[C@H]2c2ccc(F)cc2)cc1
9,158 to 159,CC12CCC(=O)C=C1CCCC2n1cc(-c2ccccc2)nn1 (stereo not drawn)
10,107 to 109,NS(=O)(=O)OCCOc1cccc(OCc2ccccc2)c1
11,197 to 199,O=C(Nc1ccc(C(F)(F)F)cc1)Nc1nc(OCC(F)(F)F)cc(C(F)(F)F)n1
12,239 to 241,C(=Cc1ccc(-c2cc3c(ccc4oc5ccccc5c43)o2)cc1)c1ccccc1
13,132 to 134,O=C(O)[C@H]1C[C@@H](O)CN1C(=O)Nc1ccc(Cl)cc1
14,> 280,O=C(NCc1cc(Br)cc2[nH]c(=O)c(=O)[nH]c12)C(O)c1ccccc1 (stereo not drawn)
15,185 to 187,NS(=O)(=O)c1cc2ccc(O)cc2o1
16,240,O=C(CCN1CCCCC1)Nc1ccc2c(c1)C(=O)c1cc(NC(=O)CCN3CCCCC3)ccc1C2=O
17,232 to 233,NC(=O)c1ccc2c(c1)nc(-c1ccc(OCc3ccccc3)cc1)n2C1CCCC1
18,187 to 189,COc1cc(CBr)ccc1-c1ccccc1
19,134 to 136,OC1c2cc(OCc3ccc4ccccc4n3)ccc2OCCC1Oc1cccnc1 (stereo not drawn)
20,118 to 120,OCc1csc(NC2CCCCC2)n1
21,104 to 105,COc1ccc(CNc2nc(SC)ncc2C(=O)CP(=O)(OC)OC)cc1Cl
22,219 to 220,CCn1c(=O)c2c(nc(/C=C/c3ccc4c(c3)OCO4)n2C)n(CC)c1=O
23,74.5 to 76,COC1(OCCc2nc(C(C)C)c(Sc3cc(Cl)cc(Cl)c3)n2C)C2CC3CC(C2)CC1C3 (stereo not drawn)

row,Compound,melting point [°C]
1,COc1cccc(NC(C)=O)c1C(=O)NC1CCN(C(C)CC(C(=O)N(C)C)(c2ccccc2)c2ccccc2)CC1O (stereo not drawn),146
2,Oc1ccc2c(c1)C13CCN(CC4CCC4)C(C2)C1CCOC3 (stereo not drawn),197 to 198
3,CN1Cc2c(NC(=O)OCc3ccccc3)ncn2-c2ccccc2C1=O,246 to 247
